The procedure of data set [1]: Dose calculations (mg/kg) were based on the individual body weight measured on the day of treatment. Study duration for pharmacokinetic studies was 6 hours. […] Urine was collected for 0-6 hours and 6 to 24 hours from 3 rats in each treatment group.
In the two-compartment model, the drug distributes into two compartments, the central compartment and the tissue, or peripheral compartment. The central compartment represents the blood, extracellular fluid, and highly perfused tissues. The drug distributes rapidly and uniformly in the central compartment. A second compartment, known as the tissue or peripheral compartment, contains tissues in which the drug equilibrates more slowly. Drug transfer between the two compartments is assumed to take place by first-order processes.
The following abbreviations are utilized in Table 4 below: alpha—macro rate constant associated with the distribution phase; beta—macro rate constant associated with the elimination phase; A, B—zero time intercept associated with the alpha phase and beta phase, respectively; AUC—area under the curve; T1/2 (K10)—half-life associated with the rate constant K10; K10—elimination rate—rate at which the drug leaves the system from the central compartment; K12—rate at which drug enters tissue compartment from the central compartment; K21—rate at which drug enters central compartment from tissue compartment; V1—volume of distribution of the central compartment; V2—volume of distribution of the tissue compartment; Vss—volume of distribution at steady state; and Cl—clearance.

Data set [2] deals with 1321N1 xenograft. The experiment in a line: 1321N1 xenograft implanted in the flank of SKID mice. As to conditions: IP twice a day; day 3-10 30 mg/kg/day, day 10-42 50 mg/kg/day. The class given is in vivo.
Data set [3] can be described thus: Brain and plasma analysis of [3H]-(R,R)-methoxyfenoterol after IV administration. It counts as in vivo, male Sprague-Dawley rats. Particulars: rats, IV. The method, then:
An overview of the research study design for evaluating the brain-to-plasma distribution of [^3H]
(specific activity 57 Ci/mmol); vehicle was sterile saline, 0.9% sodium chloride, USP. Dose formulations were prepared on the day of the study. The amount of radioactivity in the dose formulation was determined by liquid scintillation. The study lasted for an hour and radioactivity levels in plasma and brain tissue were evaluated at the conclusion of the study. Approximately 5 mls of whole blood was collected. Blood samples were collected via cardiac puncture, transferred into a tube containing K3EDTA as the anticoagulant and kept on wet ice until processed to plasma. To generate plasma, samples were centrifuged within 15 minutes of collection at 2,500 RPM for 15 minutes at room temperature. Plasma was divided equally into three labeled cryovials and stored on ample dry ice until transferred to a freezer set at ≤−20° C. for storage until analysis. Duplicate aliquots were weighed and then combined with scintillation cocktail. The [^3H] radioactivity was determined on a liquid scintillation counter. Brain samples were snap frozen in liquid nitrogen and stored at ≤−70° C. until analysis. Whole brain tissue was homogenized and the weight of the homogenate was determined. Duplicate aliquots from the homogenate were weighed, solubilized and then combined with scintillation cocktail. The [^3H] radioactivity was determined on a liquid scintillation counter.

Where [4] appears, read: rats, 5 mg/kg intravenous, two-compartment open model.

Values joined by “and” are separate entries in the source; they are usually repeats but may differ in a detail not shown here. Equal values may be shown once. Read-outs that look alike come from different tables or passages of the source.

For `COc1ccc(C[C@@H](C)NC[C@H](O)c2cc(O)cc(O)c2)cc1.O=C(O)/C=C/C(=O)O` [(R,R)-2, (R,R)-(−)-1-p-Methoxyphenyl-2-(β-3′,5′-dihydroxy-phenyl-β-oxy)ethylamino-propane Fumarate], in data set [1] (individual rat, 5 mg/kg IV, 300 min, listed as (R,R)-methoxyfenoterol), the Individual plasma concentration was 0.06 ug/ml and 0.07 ug/ml (3×) and 0.09 ug/ml. Besides, in data set [1] (rats, 5 mg/kg IV), the “systemic exposure (AUC) compared to (R,R)-fenoterol” value was “significantly higher”. Also, the “Plasma concentration, Average” value in data set [1] (rats, 5 mg/kg IV, 15 min) was determined as 580 ng/mL; in data set [1] (rats, 5 mg/kg IV, 30 min), 410 ng/mL; in data set [1] (rats, 5 mg/kg IV, 60 min), 260 ng/mL; in data set [1] (rats, 5 mg/kg IV, 120 min) it was 170 ng/mL; in data set [1] (rats, 5 mg/kg IV, 240 min) it was 120 ng/mL; in data set [1] (rats, 5 mg/kg IV, 300 min), 70 ng/mL. In addition, the “Plasma concentration, Average” value in data set [1] (rats, 5 mg/kg IV, 360 min) came to 60 ng/mL. In data set [1] (setting [4]), the “A (zero time intercept, alpha phase)” value came to 4.6437 µg/mL. Also, the AUC in data set [1] (setting [4]) came out at 96.1011 µg·min/mL. Moreover, the “B (zero time intercept, beta phase)” value in data set [1] (setting [4]) was found to be 0.3900 µg/mL. Besides, the “growth of 1321N1 xenograft” value in data set [2] was “inhibit growth”. Besides, the “passage through the blood brain barrier” value in data set [3] is “capable of passing through the blood brain barrier”.

As usually defined, the AUC is concentration integrated over time.

(Values after US10617654B2, “Use of fenoterol and fenoterol analogues in the treatment of glioblastomas and astrocytomas” (priority 2010, dated 2020).)
